Results taken from BindingDB's records for doi:10.1016/j.bmcl.2020.127353 (Lanzhou University, 2020).
pEC50: −log10 of the molar value. Where a SMILES comes first, the peptide text is derived from it. The star is where a group is joined. Stearoyl = CCCCCCCCCCCCCCCCCC(=O)*

Assay: Binding affinity to NK1R (unknown origin) expressed in HEK293 cells assessed as reduction in cell viability incubated for 96 hrs by MTT assay

In the case of CCCCCCCCCCCCCCCCCC(=O)N[C@@H](CCCCN)C(=O)N[C@@H](Cc1c[nH]c2ccccc12)C(=O)N[C@@H](CCCCN)C(=O)N[C@@H](CC(C)C)C(=O)N[C@@H](CCC(=O)O)C(=O)N[C@@H](CCCCN)C(=O)N[C@@H](CCCCN)C(=O)N[C@H](C(=O)NCC(=O)N[C@@H](C)C(=O)N[C@H](C(=O)N[C@@H](CC(C)C)C(=O)N[C@H](C(=O)N[C@@H](CS)C(=O)N[C@H](C(=O)N[C@@H](CC(C)C)C(=O)N[C@@H](CCCNC(=N)N)C(=O)N1CCC[C@H]1C(=O)N[C@@H](CCCCN)C(=O)N1CCC[C@H]1C(=O)N[C@@H](CCC(N)=O)C(=O)N[C@@H](CCC(N)=O)C(=O)N[C@@H](Cc1ccccc1)C(=O)N[C@@H](Cc1ccccc1)C(=O)NCC(=O)N[C@@H](CC(C)C)C(=O)N[C@@H](CCSC)C(N)=O)C(C)C)[C@@H](C)CC)C(C)C)[C@@H](C)CC (Stearoyl-KWKLEKKIGAVLICVLRPKPQQFFGLM-NH2), the pEC50 was 5.28.
